Reference: patent publication US20230250096A1, “SUBSTITUTED PHENYL-1H-PYRROLO[2,3-c] PYRIDINE DERIVATIVES” (Janssen Pharmaceutica NV, priority 2021, published 2023)
Like-named read-outs stand apart in the source and are kept apart here.

Experiments:
KO-52 cells = assay: Proliferation assay (spheroid confluence, 8 days), KO-52 control cell line; type: cell-based, human; conditions: Homo sapiens, read-out: spheroid assay_KO-52 IC50
Method: (§1) The anti-proliferative effect of menin/MLL protein/protein interaction inhibitor test compounds was assessed in human leukemia cell lines. The cell line MOLM14 harbors a MLL translocation and expresses the MLL fusion protein MLL-AF9, respectively, as well as the wildtype protein from the second allele. OCI-AML3 cells that carry the NPM1c gene mutation were also tested. […] KO-52 was used as a control cell line containing two MLL (KMT2A) wildtype alleles in order to exclude compounds that display general cytotoxic effects.
(§2) MOLM14 cells were cultured in RPMI-1640 (Sigma Aldrich) supplemented with 10% heat-inactivated fetal bovine serum (HyClone), 2 mM L-glutamine (Sigma Aldrich) and 50 μg/ml gentamycin (Gibco). KO-52 and OCI-AML3 cell lines were propagated in alpha-MEM (Sigma Aldrich) supplemented with 20% heat-inactivated fetal bovine serum (HyClone), 2 mM L-glutamine (Sigma Aldrich) and 50 μg/ml gentamycin (Gibco).
(§3) In order to assess the anti-proliferative effects, 200 MOLM14 cells, 200 OCI-AML3 cells or 300 KO-52 cells were seeded in 200 μl media per well in 96-well round bottom, ultra-low attachment plates (Costar, catalogue number 7007). Cell seeding numbers were chosen based on growth curves to ensure linear growth throughout the experiment. Test compounds were added at different concentrations and the DMSO content was normalized to 0.3%. Cells were incubated for 8 days at 37° C. and 5% CO2. Spheroid like growth was measured in real-time by live-cell imaging (IncuCyteZOOM, Essenbio, 4×objective) acquiring images at day 8. Confluence (%) as a measure of spheroid size was determined using an integrated analysis tool.
(§4) In order to determine the effect of the test compounds over time, the confluence in each well as a measure of spheroid size, was calculated. Confluence of the highest dose of a reference compound was used as baseline for the LC (Low control) and the confluence of DMSO treated cells was used as 0% cytotoxicity (High Control, HC).
(§5) Absolute IC50 values were calculated as percent change in confluence as follows:
(§6) LC=Low Control: cells treated with e.g. 1 μM of the cytotoxic agent staurosporin, or e.g. cells treated with a high concentration of an alternative reference compound
(§7) HC=High Control: Mean confluence (%) (DMSO treated cells)
(§8) % Effect=100−(100*(Sample−LC)/(HC−LC))
(§9) GraphPad Prism (version 7.00) was used to calculate the IC50. Dose-response equation was used for the plot of % Effect vs Log10 compound concentration with a variable slope and fixing the maximum to 100% and the minimum to 0%.

MOLM14 cells = assay: Proliferation assay (spheroid confluence, 8 days), MOLM14; type: cell-based, human; conditions: read-out: spheroid assay_MOLM14 IC50
Method: as §1, §2, §3, §4, §5, §6, §7, §8, §9

[1] = biological target: T1, menin/MLL (terbium chelate-labeled menin, FITC-MBM1 peptide) (Homo sapiens, UniProt O00255, T541A); assay: Menin/MLL homogenous time-resolved fluorescence (HTRF) assay; type: binding; conditions: 30 min incubation
T1 construct: Menin (a.a 1-610-6xhis tag, 2.3 mg/mL in 20 mM Hepes)
T1 sequence (O00255 with tags, fused parts or gaps T541A): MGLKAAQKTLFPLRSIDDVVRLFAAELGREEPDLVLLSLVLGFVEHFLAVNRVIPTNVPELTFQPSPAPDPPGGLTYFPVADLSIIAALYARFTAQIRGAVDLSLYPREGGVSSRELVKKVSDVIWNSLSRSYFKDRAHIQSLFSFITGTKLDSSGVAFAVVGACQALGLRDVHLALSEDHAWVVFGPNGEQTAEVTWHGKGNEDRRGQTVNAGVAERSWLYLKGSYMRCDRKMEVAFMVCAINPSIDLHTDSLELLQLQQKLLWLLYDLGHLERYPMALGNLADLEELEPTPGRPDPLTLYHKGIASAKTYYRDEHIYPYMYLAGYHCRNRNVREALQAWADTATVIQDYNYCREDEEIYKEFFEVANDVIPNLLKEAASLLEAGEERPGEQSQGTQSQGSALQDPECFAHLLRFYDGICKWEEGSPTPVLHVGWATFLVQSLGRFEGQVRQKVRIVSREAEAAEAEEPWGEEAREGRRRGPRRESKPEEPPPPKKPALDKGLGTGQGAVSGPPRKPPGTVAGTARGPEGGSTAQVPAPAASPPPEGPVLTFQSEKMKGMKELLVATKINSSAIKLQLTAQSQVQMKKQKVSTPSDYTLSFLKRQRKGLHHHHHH
Summary of the method: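 Competition binding read by time-resolved FRET (FITC 520 nm over terbium 490 nm) after compound meets labeled menin 1-610-His […] for 30 min, then FITC-MBM1 (75 nM) for 15 min, ambient temperature, 0.5% DMSO. Eleven-point four-fold dilutions, usually starting at 10 μM, fitted to four-parameter curves for IC50.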

OCI-AML3 cells = assay: Proliferation assay (spheroid confluence, 8 days), OCI-AML3; type: cell-based, human; conditions: read-out: spheroid assay_OCI-AML3 IC50
Method: as §1, §2, §3, §4, §5, §6, §7, §8, §9

MEIS1 mRNA expression = MEIS1 mRNA expression assay (Quantigene Singleplex) in MOLM14 cells; type: cell-based, human; conditions: 48 hours incubation
Summary of the method: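 Read-out: MEIS1 transcript counts, background-subtracted and divided by RPL28, expressed as fold change over DMSO-treated cells, then dose-response modelled for IC50. MOLM14 cells (3,750/well) received graded compound for 48 h before lysis and QuantiGene hybridization at 55 °C.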

[2] = Homo sapiens, OCI-AML-3, OCI-AML3

SMILES	IC50 (KO-52 cells)	IC50 (MOLM14 cells; Homo sapiens, MOLM-14, MOLM14)	IC50 [1]	IC50 (OCI-AML3 cells; [2])	IC50 (OCI-AML3 cells; OCI-AML3)	IC50 (MEIS1 mRNA expression)	IC50 (MEIS1 mRNA expression; Homo sapiens, MOLM-14, 48 h)	IC50 (MOLM14 cells; MOLM14)
CCN(C(=O)c1cc(F)ccc1-n1cc(CC2CN(C(C(C)C)[C@H]3C[C@H](N4C[C@H]5CN(C(C)=O)C[C@@H]5C4)C3)C2)c2c(C)cncc21)C(C)C (mixture of isomers) [Compound 38b]	1200 nM	2 nM	0.013 nM	–	–	–	–	–
CNC(=O)N1CCC(CN2CC[C@H](Cc3cn(-c4ccc(F)cc4C(=O)N(C)C(C)C)c4cncc(C)c34)C2)CC1 (single isomer, unassigned) [Compound 101]	3100 nM	–	0.041 nM	8 nM	–	–	–	–
COCC(=O)N1CCC(C(C)N2CCC(Cc3cn(-c4ccc(F)cc4C(=O)N(C)C(C)C)c4cncc(C)c34)C2)CC1 (single isomer, unassigned) [Compound 117a]	1600 nM	–	0.088 nM	7 nM	–	–	–	–
Cc1cncc2c1c(C[C@@H]1CCN(CC3CCNC(=O)CC3)C1)cn2-c1ccc(F)cc1C(=O)N1CCC[C@H]1C (single isomer, unassigned) [Compound 353b]	–	–	0.238 nM	–	236 nM	139 nM	–	–
CCN(C(=O)c1cc(F)ccc1-n1cc(CC2CN(C(C(C)C)[C@H]3C[C@@H](N4CCN(C(C)=O)CC4)C3)C2)c2c(C)cncc21)C(C)C (stereo partly drawn) [Compound 35a]	1500 nM	–	0.059 nM	–	–	–	21 nM	–
CN=S(=O)(c1cc(F)ccc1-n1cc(CC2CN(CC3CCOCC3)C2)c2c(C)cncc21)C(C)C (stereo not drawn) [Compound 79]	9400 nM	92 nM	0.168 nM	–	–	–	–	–
Cc1cncc2c1c(CC1CN(CC3CCOCC3)C1)cn2-c1ccc(F)cc1S(=N)(=O)C(C)C (stereo not drawn) [Compound 80]	7200 nM	99 nM	0.116 nM	–	–	–	–	–
Cc1cncc2c1c(CC1CN(C[C@H]3CC[C@H](C(=O)NC4CC4)CC3)C1)cn2-c1ccc(F)cc1C(=O)N(C)C(C)C [Compound 159]	–	3 nM	0.019 nM	–	–	–	10 nM	–
Cc1cncc2c1c(C[C@@H]1CCN(C3CCN(S(C)(=O)=O)CC3)C1)cn2-c1ccc(F)cc1C(=O)N(C)C(C)C [Compound 161]	–	53 nM	0.167 nM	–	–	–	256 nM	–
CNC(=O)N1CCC(CN2CC[C@H](Cc3cn(-c4ccc(F)cc4C(=O)N(C)C(C)C)c4cncc(C)c34)C2)CC1 [Compound 168]	–	–	0.1 nM	–	–	16 nM	–	8 nM
Cc1cncc2c1c(C[C@H]1CCN(CC3CCN(C(=O)N(C)C)CC3)C1)cn2-c1ccc(F)cc1C(=O)N(C)C(C)C [Compound 170]	–	14 nM	0.155 nM	–	–	–	79 nM	–
COCCN(C)C(=O)N1CCC(CN2CC[C@@H](Cc3cn(-c4ccc(F)cc4C(=O)N(C)C(C)C)c4cncc(C)c34)C2)CC1 [Compound 172]	–	11 nM	0.134 nM	–	–	–	18 nM	–
CON(C)C(=O)N1CCC(CN2CC[C@@H](Cc3cn(-c4ccc(F)cc4C(=O)N(C)C(C)C)c4cncc(C)c34)C2)CC1 [Compound 173]	–	5 nM	0.056 nM	–	–	–	32 nM	–
Cc1cncc2c1c(C[C@@H]1CCN(CC3CCN(C(=O)N4CCOCC4)CC3)C1)cn2-c1ccc(F)cc1C(=O)N(C)C(C)C [Compound 174]	–	7 nM	0.048 nM	–	–	–	34 nM	–
CC(=O)N1CCC(O)(CN2CC[C@@H](Cc3cn(-c4ccc(F)cc4C(=O)N(C)C(C)C)c4cncc(C)c34)C2)CC1 [Compound 177]	–	35 nM	0.109 nM	–	–	–	268 nM	–
Cc1cncc2c1c(C[C@@H]1CCN(CC3CCC(=O)N(C)CC3)C1)cn2-c1ccc(F)cc1C(=O)N(C)C(C)C (stereo partly drawn) [Compound 184]	7400 nM	26 nM	0.06 nM	–	–	–	–	–
CC(=O)N1CCC(CN2CC[C@@H](Cc3cn(-c4ccc(F)cc4C(=O)N4CCC(O)C4(C)C)c4cncc(C)c34)C2)CC1 (stereo partly drawn) [Compound 313]	–	179 nM	0.155 nM	–	–	–	552 nM	–
[2H]C([2H])([2H])N(C(=O)c1cc(F)ccc1-n1cc(C[C@@H]2CCN(CC3CCN(C(C)=O)CC3)C2)c2c(C)cncc21)C(C)C [Compound 314]	–	6 nM	0.055 nM	–	–	–	19 nM	–
COCC1CCCN1C(=O)c1cc(F)ccc1-n1cc(C[C@@H]2CCN(CC3CCN(C(C)=O)CC3)C2)c2c(C)cncc21 (stereo partly drawn) [Compound 321]	–	232 nM	0.257 nM	–	–	–	413 nM	–
CC(=O)N1CCC(CN2CC[C@@H](Cc3cn(-c4ccc(F)cc4C(=O)N4CCC[C@@H]4CO)c4cncc(C)c34)C2)CC1 [Compound 322]	–	323 nM	0.152 nM	–	–	–	~547 nM	–
CC(=O)N1CCC(CN2CC[C@@H](Cc3cn(-c4ccc(F)cc4C(=O)N4CCC[C@H]4CO)c4cncc(C)c34)C2)CC1 [Compound 323]	–	142 nM	0.08 nM	–	–	–	~146 nM	–
CC(=O)N1CCC(CN2CC[C@@H](Cc3cn(-c4ccc(F)cc4C(=O)N(CCO)C(C)C)c4cncc(C)c34)C2)CC1 [Compound 326]	–	16 nM	0.038 nM	–	–	–	23 nM	–
Cc1cncc2c1c(C[C@@H]1CCN(CC3CCOCC3)C1)cn2-c1ccc(F)cc1C(=O)N1C[C@H](O)C[C@H]1C [Compound 359]	–	79 nM	0.166 nM	–	–	–	358 nM	–
